Assay results: patent publication US5334528A (priority 1989, dated 1994)
Where “and” joins values, the source holds several entries; their conditions need not be identical. Equal values may be shown once. Where a name gives a salt, the structure may show the parent alone.

System: monoclonal antibody from hybridoma Hept-2
Type: binding, mice

| SMILES | % Crossreactivity | I50 |
| --- | --- | --- |
| O=[N+]([O-])c1ccc(O)c([N+](=O)[O-])c1 [2,4-dinitro-phenol] | 0.2% |  |
| Oc1ccccc1 [phenol] | 0% |  |
| Clc1ccc(C(c2ccc(Cl)cc2)C(Cl)(Cl)Cl)cc1 [DDT] | 0% |  |
| Oc1ccccc1Cl [2-Cl-phenol] | 0% |  |
| Clc1cccc(Cl)c1 [1,3-diCl-Bz] | 0% |  |
| Oc1c(Cl)cc(Cl)cc1Cl [2,4,6-triCl-phenol] | 0% |  |
| Clc1ccccc1Cl [1,2-diCl-Bz] | 0% |  |
| O=C(O)COc1ccc(Cl)cc1Cl [2,4-D] | 0% |  |
| O=C(O)COc1cc(Cl)c(Cl)cc1Cl [2,4,5-triCl-phenoxyacetic acid] | 0% |  |
| ClC(Cl)=C(Cl)C(Cl)=C(Cl)Cl [hexa-Cl-butadiene] | 0.4% |  |
| Oc1cc(Cl)c(Cl)cc1Cl [2,4,5-triCl-phenol] | 0% |  |
| ClC1=C(Cl)C(Cl)(Cl)C(Cl)=C1Cl [hexa-Cl-cyclopentadiene] | 1.6% |  |
| Clc1ccc2ccccc2c1 [2-Cl-naphthalene] | 0% |  |
| OCC(Cl)(Cl)Cl [2,2,2-tri-Cl-ethanol] | 0.4% |  |
| Cc1cc(O)ccc1Cl [4-Cl-3-Me phenol] | 0% |  |
| O=[N+]([O-])c1cc(Cl)ccc1Cl [2,5-diCl-nitroBz] | 0% |  |
| ClC1=C(Cl)C2(Cl)C3C4OC4C(Cl)C3C1(Cl)C2(Cl)Cl (stereo not shown) [heptachlor epoxide] | 100% | 1-10 ng/well |
| Clc1ccc(Cl)c(Cl)c1 [1,2,4-triCl-Bz] | 0% |  |
| O=S1OCC2C(CO1)C1(Cl)C(Cl)=C(Cl)C2(Cl)C1(Cl)Cl (stereo not shown) [Endosulfan (mix), 6,7,8,9,10,10-Hexachloro-1,5,5a,6,9,9a-hexahydro-6,9,-methano-2,4,3-benzo[e]-dioxathiepin-3-oxide] | 173% |  |

| SMILES | % Crossreactivity | I50 |
| --- | --- | --- |
| ClC(Cl)(Cl)C(Cl)(Cl)Cl [hexa-Cl-ethane] | 0% |  |
| ClC1=C(Cl)C2(Cl)C3C(Cl)C=CC3C1(Cl)C2(Cl)Cl (stereo not drawn) [heptachlor, 1,-exo-,4,5,6,7,8,8,-Heptachloro-3a,4,7,7a-tetrahydro-4,7-methanoindene] | 100% | 2-4 ng/well and 1-10 ng/well |
| O=S1(=O)OCC2C(CO1)C1(Cl)C(Cl)=C(Cl)C2(Cl)C1(Cl)Cl (stereo not shown) [Endosulfansulfate, endosulfan sulfate] | 182% |  |
| O=[N+]([O-])c1cc(Cl)cc(Cl)c1O [2,4-diCl-6-nitrophenol] | 0% |  |
| O=[N+]([O-])c1ccccc1O [2-nitro-phenol] | 0% |  |
| ClC1=C(Cl)C2(Cl)C3C(Cl)C(Cl)CC3C1(Cl)C2(Cl)Cl (stereo not shown) [chlordane, 2,3,4,5,6,7,8,8-Octachloro-2,3,3a,4,7,7a-hexahydro-4,7-methanoindene] | 75% | 1-10 ng/well |
| ClC1C(Cl)C(Cl)C(Cl)C(Cl)C1Cl (stereo not shown) [Lindand (BHC), 1,2,3,4,5,6-Hexachlorocyclohexane] | 7.3% |  |
| ClC1=C(Cl)C2(Cl)C3C4C=CC(C4)C3C1(Cl)C2(Cl)Cl (stereo not drawn) [aldrin, 1,2,3,4,10,10-Hexachloro-1,4,4a,5,8,8a hexahydro-1,4-exo, endo-5,8,-dimethanonaphthalene (HHDN)] | 100% | 1-10 ng/well |
| Oc1c(Cl)c(Cl)c(Cl)c(Cl)c1Cl [penta-Cl-phenol] | 0% |  |
| Oc1ccc(Cl)cc1Cl [2,4-diCl-phenol] | 0% |  |
| O=S1OCC2C(CO1)C1(Cl)C(Cl)=C(Cl)C2(Cl)C1(Cl)Cl (stereo not drawn) [β-Endosulfan, beta-endosulfan] | 250% |  |
| ClC1=C(Cl)C2(Cl)C3C4CC(C5OC45)C3C1(Cl)C2(Cl)Cl [endrin, (1R, 4S, 5R, 8S) 1,2,3,4,10,10-hexachloro-6,7-epoxy-1,4,4a,5,6,7,8,8a-octahydro-exo-5,8,dimethano-naphthalene] | 150% | 1-10 ng/well |
| Clc1ccc(Cl)cc1 [1,4-diCl-Bz] | 0% |  |
| Clc1ccccc1 [Chlorobenzene] | 0% |  |
| O=S1OCC2C(CO1)C1(Cl)C(Cl)=C(Cl)C2(Cl)C1(Cl)Cl (stereo not drawn) [a-Endosulfan, alpha-endosulfan] | 43% |  |
| Cc1ccc(O)c(C)c1 [2,4-DiMe-phenol] | 0% |  |
| Oc1cc(Cl)c(Cl)cc1O [4,5-diCl-catecol] | 0% |  |
| O=[N+]([O-])c1ccc(O)cc1 [4-nitro-phenol] | 0% |  |
| O=C1C2(Cl)C3(Cl)C4(Cl)C(Cl)(Cl)C5(Cl)C3(Cl)C1(Cl)C5(Cl)C24Cl (stereo not shown) [Kepone, Decachloro-octahydro-1,3,4,-metheno-2H-cyclobuta(cd) pentalen-2-one] | 5% |  |
